The subject of series [1] is E13.5 rat embryonic pancreases. Description: Number of NGN3-positive cells by immunohistochemistry in cultured embryonic pancreases. The series is classed as cell-based. The note with it: for number of NGN3-positive endocrine progenitor cells, decrease: 1 day, NAC at 10 µM or CCCP at 1 µM. How it is done: (§1) The embryos were harvested on E13.5. The dorsal pancreatic bud was dissected, as described previously (Attali et al., 2007). For the depletion of the mesenchyme, the digestive tract was incubated with 0.5 mg/ml collagenase A (Roche, Meyaln, France) at 37°c for 30 min, then washed several times with Hank's balanced solution (Invitrogen, Cergy-Pontoise, France) at 4°c, and the epithelium was mechanically separated from the mesenchyme using needles on 0.25% agar, 25% Hank's balanced solution and 75% RPMI gel (Life Technologies, Invitrogen) in a petri dish. Pancreatic rudiments (epithelium with mesenchyme) or epithelia were then cultured at the air-medium interface on Millicell culture plate inserts (Millipore, Molsheim, France) in Petri dishes containing RPMI 1640 (Invitrogen) supplemented with penicillin (100 U/ml), streptomycin ([…]), HEPES (10 mM), l-glutamine (2 mM), nonessential amino acids (1; Invitrogen, Cergy-Pontoise, France) and 10% heat-inactivated calf serum (Hyclone, South Logan, UT, USA) for one to 7 days. […] Glucose (Sigma, Saint-Quentin Fallavier, France) was used at 20 mM/l and the inhibitor of the ERK pathway (U0126, Cell Sinaling Technologies Ozyme, Saint-Quentin, France) at 10 µmol/l. Cultures were maintained at 37°C in humidified 95% air and 5% CO2.
Ad-CMV-GFP (ref 1060, Vector Biolabs, Philadelphia, PA, USA) and Ad-Catalase (ref 1475, Vector Biolabs) adenoviruses were used to infect the embryonic Wistar rat epithelia. Tissues were incubated with viral particles at the multiplicity of infection of 1000 for 4 h at 37°C in RPMI 1640 as described in (Heinis et al.2012). After infection, tissues were washed twice in HBSS and cultured at the air-medium interface.
Tissues were fixed in 10% formalin and processed for immunohistochemistry, as described previously (Attali et al., 2007). The following antibodies were used: mouse anti-insulin (1:2000; Sigma-Aldrich), rabbit anti-PDX1 (1:1,000), rabbit anti-amylase (Sigma-Aldrich, 1:300), mouse anti-E-cadherin (1:100, BD Biosciences, Le Pont de Claix, France), mouse anti-BrdU (1:2, Amersham, Velizy-Villacoublay, France), rabbit anti-NGN3 (1:1000) (Guillemain et al., 2007), rabbit anti-catalase (1:1000, Rockland Immunochemicals, Gilbertsville, PA USA). The fluorescent secondary antibodies were fluorescein-isothiocyanate anti-rabbit and Texas-red anti-mouse antibodies (1:200, Jackson Immunoresearch, Suffolk, England), and Atexa-fluor anti-rabbit antibody (1:400, Biogenex, Fremont, CA, USA). For NGN3, revelation was performed using the vectastain ABC kit (Vector LAB, Peterborough, England). Photographs were taken using a fluorescence microscope (Leitz DMRB; Leica) and digitized using a Hamamatsu (Middlesex, NJ, USA) C5810 cooled 3CCD camera.
(§2) To quantify the number of NGN3-positive cells, NGN3-positive cells were counted on all sections. Statistical significance was determined using Student's t test.

For series [2], the system named is E13.5 rat embryonic pancreases. The series can be described thus: Beta cell development (insulin staining surface) in cultured embryonic pancreases. It counts as cell-based. The note with it: for insulin staining surface: day 7, NAC at 10 µM or CCCP at 1 µM. The text has this:
The embryos were harvested on E13.5. […] On every image, the surface area of insulin staining was quantified using ImageJ as described in (Heinis et al.).

Series [3] concerns ERK1/2. Description: Western blot of ERK1/2 and MEK phosphorylation in cultured embryonic pancreases. The series is classed as cell-based, rat. As for the experimental part:
The embryos were harvested on E13.5. The dorsal pancreatic bud was dissected, as described previously (Attali et al., 2007). […] Glucose (Sigma, Saint-Quentin Fallavier, France) was used at 20 mM/l and the inhibitor of the ERK pathway (U0126, Cell Sinaling Technologies Ozyme, Saint-Quentin, France) at 10 µmol/l.
For Western blotting analysis, cells were lysed in Laemmli buffer. Proteins (20µg) were resolved by SDS/PAGE and electrophoretically transferred onto PVDF membrane (Bio-Rad, Hercules, CA, USA). After blocking with milk, membranes were probed with rat anti-p44/42 MAPK (Erk1/2), mouse anti-Phospho-p44/42 MAPK (Erk1/2) (Thr202/Tyr204), anti-Phospho-MEK (all from Cell Signaling Ozyme, ST Quentin en Yvelines, France) and mouse anti-actin (Sigma-Aldrich).Immunoreactive bands were visualized with the SuperSignal System (Pierce; Fisher Scientific, Illkirch, France).
The Mitogen Activated Protein Kinase (MAPK) ERK1/2 pathway, which was recently shown to be sensitive to ROS production in several cell types (Zhang et al., 2013) was examined. […] As a positive control, pancreases were also treated with 20 mM Glucose, an inducer of the ERK1/2 phosphorylation (Briaud et al., 2003). […] To further characterize ERK1/2-dependent effect of ROS on pancreas development, an ERK1/2 inhibitor was used (U0126). To validate the efficiency of the inhibitor, pancreatic explants were first cultured with glucose, in the presence or in the absence of U0126. Activation of ERK1/2 by glucose was abolished in the presence of U0126 (Figure 8A), confirming the efficiency of U0126.

In series [4] the test system is early PDX1+ progenitors. The settings on record: 1 day of culture, 50 µM H2O2. As for the experimental part: The embryos were harvested on E13.5. The dorsal pancreatic bud was dissected, as described previously (Attali et al., 2007). For the depletion of the mesenchyme, the digestive tract was incubated with 0.5 mg/ml collagenase A (Roche, Meyaln, France) at 37°c for 30 min, then washed several times with Hank's balanced solution (Invitrogen, Cergy-Pontoise, France) at 4°c, and the epithelium was mechanically separated from the mesenchyme using needles on 0.25% agar, 25% Hank's balanced solution and 75% RPMI gel (Life Technologies, Invitrogen) in a petri dish. Pancreatic rudiments (epithelium with mesenchyme) or epithelia were then cultured at the air-medium interface on Millicell culture plate inserts (Millipore, Molsheim, France) in Petri dishes containing RPMI 1640 (Invitrogen) supplemented with penicillin (100 U/ml), streptomycin ([…]), HEPES (10 mM), l-glutamine (2 mM), nonessential amino acids (1; Invitrogen, Cergy-Pontoise, France) and 10% heat-inactivated calf serum (Hyclone, South Logan, UT, USA) for one to 7 days. […]
Tissues were fixed in 10% formalin and processed for immunohistochemistry, as described previously (Attali et al., 2007). […] Photographs were taken using a fluorescence microscope (Leitz DMRB; Leica) and digitized using a Hamamatsu (Middlesex, NJ, USA) C5810 cooled 3CCD camera.
(§3) Statistical significance was determined using Student's t test.

For series [5], the system named is Nrf2. The settings on record: pancreases treated with H2O2; data not shown. As for the experimental part: Total RNA was purified using the Rneasy microkit (Qiagen, Courtaboeuf, France). The cDNA was generated using Superscript reagents (Invitrogen), and the real-time PCR was performed on a 7300 real-time PCR system (Applied Biosystem, Invitrogen) with an SYBR Green PCR master mix. The oligonucleotide sequences for RT-PCR are available on request.

Series [6] deals with beta cells. The note with it: concentrations of H2O2 used.
Series [7] deals with Notch receptors 1 and 2, the Notch target Hes 1, the Notch ligands Jagged 1, Jagged 2, Delta-like 1. The settings on record: one day, 50 µM H2O2. How it is done: as §1
Total RNA was purified using the Rneasy microkit (Qiagen, Courtaboeuf, France). […]

The test system of series [8] is E13.5 rat embryonic pancreases. The note with it: one day of culture, 50 µM H2O2. As for the experimental part:
as §1, with “CO2. […]” for “CO2.”
as §3

For series [9], the system named is embryonic pancreases. Description: NAC given to pregnant rats in drinking water, analysis of embryonic pancreases. The series is classed as in vivo, Wistar Rats. The note with it: pregnant rats treated with 10 mM NAC from E13.5.
Source text: Pregnant Wistar Rats were purchased from the Janvier Breeding center (CERJ Janvier, Le Genest Saint-Ile, France). The animals had free access to food pellets and water. Embryonic day 0.5 (E0.5) was considered the first day postcoïtum. Pregnant female were killed by CO2 asphyxiation according to the guidelines of the French Animal Care Committee.
N-Acetyl cystein (Sigma, Saint-Quentin Fallavier, France) treatment was initiated during embryonic life at E13.5 and given into drinking water to pregnant females.
For NGN3, revelation was performed using the vectastain ABC kit (Vector LAB, Peterborough, England).
To quantify the absolute number of insulin-expressing cells, all sections of each pancreatic rudiment were digitized. On every image, the surface area of insulin staining was quantified using ImageJ as described in (Heinis et al.).
as §2
Female pregnant rats at 13.5 days postcoitus were treated with NAC, and the number of NGN3-positive cells was measured.

As for `N#CC(C#N)=NNc1cccc(Cl)c1` [CCCP, Carbonyl cyanide m-chlorophenyl hydrazone], the “number of NGN3-positive endocrine progenitor cells, decrease” value in series [1] is recorded as approximately 2 fold. Moreover, the insulin staining surface result in series [2] is reported as “decrease”.

With `OO` [H2O2, hydrogen peroxide], the “number of NGN3 expressing cells” value in series [1] (H2O2 at 50 µM, without U0126) is reported as “increased”. Further, the “number of NGN3-positive cells, increase” value in [1] (day 1, 50 µM H2O2) was approximately 2 fold. In [3] (5 or 15 minutes, H2O2 50 µM or 20 mM Glucose), the “activation of the ERK1/2 pathway” value is “induced”. In series [3] (H2O2 50 µM), the “time after addition at which ERK1/2 activation was observed” value was “five”. The “rate of cell proliferation (BrdU incorporation) vs controls” value in series [4] is “similar”. For the same compound, the “Nrf2 RNA levels” value in [5] is on record as “slight increase”. For the same compound, in [2] (H2O2 50µM, analyzed seven days later), the “insulin surface, larger than controls” value stood at 2.6 fold. The “oxidative stress or damage in the resulting beta cells” value in [6] is “did not produce detectable oxidative stress or damage”. Besides, in [7], the “expression of Notch pathway genes vs controls” value was “No difference”. The “rate of apoptosis vs controls” value in [8] is “No difference”.

As to `CC(=O)N[C@@H](CS)C(=O)O` [NAC, N-Acetyl cystein], in [1], the “number of NGN3-positive endocrine progenitor cells, decrease” value is on record as approximately 2 fold. For the same compound, the “reduction of the beta cell mass” value in [9] (at E20.5) was 2.5 fold. The “number of NGN3-positive cells, decrease compared to controls” value in series [9] (embryonic pancreases analyzed at E20.5) is reported as 1.6 fold. The insulin staining surface result in series [2] is listed as “decrease”.

`N#CC(=C(/N)Sc1ccccc1N)/C(C#N)=C(\N)Sc1ccccc1N` [U0126, reference compound]: the “H2O2-induced increase of NGN3 expressing cells in the presence of the inhibitor” value in series [1] (H2O2 at 50 µM with U0126) is “abrogated”. Further, the “activation of ERK1/2 by glucose in the presence of the inhibitor” value in [3] (20 mM Glucose, U0126 10 µmol/l) is on record as “abolished”. Also, the “activation of the ERK1/2 pathway by H2O2 in the presence of the inhibitor” value in series [3] (H2O2 50 µM, U0126 10 µmol/l) is recorded as “blunted”.
